Measurements reported in US9617216B2, “Antifungal oxodihydropyridinecarbohydrazide derivative” (Daewoong Pharmaceutical Co., Ltd., priority 2013, dated 2017).
In brackets after ≈: the same amount, converted by molar mass.

Columns and labels:
Candida albicans = assay: In vitro antifungal activity test (MIC), Candida albicans; assay type: cell-based; conditions: Candida albicans; concentration at which growth is inhibited by 80% vs negative control; 35° C., 24 hours, RPMI 1640, alama blue
Procedure: (§1) The antifungal activities of the compounds of the present invention were evaluated using Candida albicans as yeast fungus, and Aspergillus fumigatus as a filamentous fungus. The above fungi used were all purchased from American Type Culture Collection (ATCC). The strains used in the experiment were inoculated into a Sabouraud dextrose agar medium, and then cultured at 35° C. for a sufficient period of time, e.g., 24 hours for Candida albicans, and about 7 days for Aspergillus fumigatus. As for Candida albicans, about 5 to 7 single colonies were taken from the cultured medium, sufficiently suspended in 1 ml of 0.85% sterile saline solution, and adjusted to have an optical density of 0.095 to 0.107 at 530 nm. A preparation of a strain diluent was diluted in Roswell park memorial institute (RPMI) 1640 medium at a 1:10 ratio, and the resultant was diluted again at a 1:100 ratio to obtain an inoculation preparation for Candida albicans with a concentration of 1.0×10^3 to 5.0×10^3 CFU/mL. As for Aspergillus fumigatus, the cultured Sabouraud dextrose agar was added with 1 mL of 0.2% Tween 20 diluted with 0.85% sterile saline solution, and then the plate was shaken to detach conidium from the plate. The solution collected from the plate surface was transferred into a sterile tube, and placed at room temperature for 5 minutes to deposit heavy substances. The resulting supernatant was transferred into the sterile tube, sufficiently suspended for about 15 seconds, and prepared a strain diluent with a concentration of 0.4×10^6 to 5.0×10^6 CFU/mL using a hemocytometer. The thus prepared strain diluent was diluted in RPMI 1640 medium at a 1:100 ratio to obtain an inoculation preparation for Aspergillus fumigatus. Candida albicans was cultured at 35° C. for 24 hours and Aspergillus fumigatus was cultured at 35° C. for 48 hours, and the concentrations, at which growth is inhibited by 80% or 50% compared to a negative control group, were determined using alama blue color developing reagent. All experiments were repeated twice for each concentration, and the results of antifungal activities (MIC80 MIC50 μg/mL) are shown in Tables 1 to 2.

Aspergillus fumigatus = assay: In vitro antifungal activity test (MIC), Aspergillus fumigatus; assay type: cell-based; conditions: Aspergillus fumigatus; concentration at which growth is inhibited by 50% vs negative control; 35° C., 48 hours, RPMI 1640, alama blue
Procedure: as §1

Row | SMILES | MIC80 (Candida albicans) | MIC50 (Aspergillus fumigatus)
1 | Cn1cc(C(=O)NNc2ccccc2F)ccc1=O [Example 1, N′-(2-fluorophenyl)-1-methyl-6-oxo-1,6-dihydropyridine-3-carbohydrazide] | 0.05 µg/mL (≈ 0.191 µM) | 0.1 µg/mL (≈ 0.383 µM)
2 | Cn1cc(C(=O)NNc2ccc(S(=O)(=O)C(F)(F)F)cc2)ccc1=O [Example 10, 1-methyl-6-oxo-N′-(4-((trifluoromethyl)sulfonyl)phenyl)-1,6-dihydropyridine-3-carbohydrazide] | 0.04 µg/mL (≈ 0.107 µM) | 0.1 µg/mL (≈ 0.266 µM)
3 | Cn1cc(C(=O)NNc2ccc(F)cc2F)ccc1=O [Example 11, N′-(2,4-difluorophenyl)-1-methyl-6-oxo-1,6-dihydropyridine-3-carbohydrazide] | 0.03 µg/mL (≈ 0.107 µM) | 0.05 µg/mL (≈ 0.179 µM)
4 | Cn1cc(C(=O)NNc2ccc(Cl)cc2Cl)ccc1=O [Example 15, N′-(2,4-dichlorophenyl)-1-methyl-6-oxo-1,6-dihydropyridine-3-carbohydrazide] | 0.03 µg/mL (≈ 0.0961 µM) | 1.95 µg/mL (≈ 6.25 µM)
5 | Cn1cc(C(=O)NNc2ccc(F)nc2)ccc1=O [Example 18, N′-(6-fluoropyridine-3-yl)-1-methyl-6-oxo-1,6-dihydropyridine-3-carbohydrazide] | 0.03 µg/mL (≈ 0.114 µM) | 0.4 µg/mL (≈ 1.53 µM)
6 | Cn1cc(C(=O)NNc2cccc(F)c2)cc(Cl)c1=O [Example 24, 5-chloro-N′-(3-fluorophenyl)-1-methyl-6-oxo-1,6-dihydropyridine-3-carbohydrazide] | 0.06 µg/mL (≈ 0.203 µM) | 1.8 µg/mL (≈ 6.09 µM)
7 | O=C(NNc1ccc(F)c(F)c1)c1ccc(=O)n(Cc2ccc(C(F)(F)F)nc2)c1 [Example 52, N′-(3,4-difluorophenyl)-6-oxo-1-((6-(trifluoromethyl)pyridine-3-yl)methyl)-1,6-dihydropyridine-3-carbohydrazide] | 0.08 µg/mL (≈ 0.189 µM) | –
8 | O=C(NNc1cccc(F)c1)c1ccc(=O)n(CCN2CCN(c3ccc(C(F)(F)F)cc3)CC2)c1 [Example 55, N′-(3-fluorophenyl)-6-oxo-1-(2-(4-(4-(trifluoromethyl)phenyl)piperazin-1-yl)ethyl)-1,6-dihydropyridine-3-carbohydrazide] | 0.2 µg/mL (≈ 0.397 µM) | –
9 | O=C(NNc1ccc(F)cc1)c1ccc(=O)n(CCN2CCN(c3ccc(C(F)(F)F)cc3)CC2)c1 [Example 56, N′-(4-fluorophenyl)-6-oxo-1-(2-(4-(4-(trifluoromethyl)phenyl)piperazin-1-yl)ethyl)-1,6-dihydropyridine-3-carbohydrazide] | 0.79 µg/mL (≈ 1.57 µM) | –
10 | O=C(NNc1cccc(F)c1)c1ccc(=O)n(CCc2cccc(Cl)c2)c1 [Example 57, 1-(3-chlorophenethyl)-N′-(3-fluorophenyl)-6-oxo-1,6-dihydropyridine-3-carbohydrazide] | 0.08 µg/mL (≈ 0.207 µM) | –
11 | O=C(NNc1cccc(F)c1)c1ccc(=O)n(CCc2ccc(Cl)cc2)c1 [Example 58, 1-(4-chlorophenethyl)-N′-(3-fluorophenyl)-6-oxo-1,6-dihydropyridine-3-carbohydrazide] | 0.08 µg/mL (≈ 0.207 µM) | –
12 | O=C(NNc1cccc(F)c1)c1ccc(=O)n(CCc2ccccc2F)c1 [Example 59, 1-(2-fluorophenethyl)-N′-(3-fluorophenyl)-6-oxo-1,6-dihydropyridine-3-carbohydrazide] | 0.14 µg/mL (≈ 0.379 µM) | –
13 | O=C(NNc1cccc(F)c1)c1ccc(=O)n(CCc2ccc(F)cc2)c1 [Example 60, 1-(4-fluorophenethyl)-N′-(3-fluorophenyl)-6-oxo-1,6-dihydropyridine-3-carbohydrazide] | 0.14 µg/mL (≈ 0.379 µM) | –
14 | O=C(NNc1cccc(F)c1)c1ccc(=O)n(CCOc2ccccc2F)c1 [Example 61, 1-(2-(2-fluorophenoxy)ethyl)-N′-(3-fluorophenyl)-6-oxo-1,6-dihydropyridine-3-carbohydrazide] | 0.08 µg/mL (≈ 0.208 µM) | –
15 | O=C(NNc1cccc(F)c1)c1ccc(=O)n(CCOc2ccc(Cl)cc2)c1 [Example 62, 1-(2-(4-chlorophenoxy)ethyl)-N′-(3-fluorophenyl)-6-oxo-1,6-dihydropyridine-3-carbohydrazide] | 0.16 µg/mL (≈ 0.398 µM) | –
16 | O=C(NNc1cccc(F)c1)c1ccc(=O)n(CCOc2cccc(C(F)(F)F)c2)c1 [Example 63, N′-(3-fluorophenyl)-6-oxo-1-(2-(3-(trifluoromethyl)phenoxy)ethyl)-1,6-dihydropyridine-3-carbohydrazide] | 0.09 µg/mL (≈ 0.207 µM) | –
17 | O=C(NNc1cccc(F)c1)c1ccc(=O)n(CCOc2ccc(Cl)cc2Cl)c1 [Example 64, 1-(2-(2,4-dichlorophenoxy)ethyl)-N′-(3-fluorophenyl)-6-oxo-1,6-dihydropyridine-3-carbohydrazide] | 0.09 µg/mL (≈ 0.206 µM) | –

Continued, values first:

Row | MIC80 (Candida albicans) | MIC50 (Aspergillus fumigatus) | SMILES
18 | 0.08 µg/mL (≈ 0.208 µM) | – | O=C(NNc1cccc(F)c1)c1ccc(=O)n(CCOc2ccc(F)cc2)c1 [Example 65, 1-(2-(4-fluorophenoxy)ethyl)-N′-(3-fluorophenyl)-6-oxo-1,6-dihydropyridine-3-carbohydrazide]
19 | 0.27 µg/mL (≈ 0.786 µM) | – | O=C(NNc1cccc(F)c1)c1ccc(=O)n(CC2CCCCC2)c1 [Example 66, 1-(cyclohexylmethyl)-N′-(3-fluorophenyl)-6-oxo-1,6-dihydropyridine-3-carbohydrazide]
20 | 0.27 µg/mL (≈ 0.786 µM) | – | O=C(NNc1ccc(F)cc1)c1ccc(=O)n(CC2CCCCC2)c1 [Example 67, 1-(cyclohexylmethyl)-N′-(4-fluorophenyl)-6-oxo-1,6-dihydropyridine-3-carbohydrazide]
21 | 0.34 µg/mL (≈ 0.785 µM) | – | O=C(Cn1cc(C(=O)NNc2cccc(F)c2)ccc1=O)c1ccc(C(F)(F)F)cc1 [Example 68, N′-(3-fluorophenyl)-6-oxo-1-(2-oxo-2-(4-(trifluoromethyl)phenyl)ethyl)-1,6-dihydropyridine-3-carbohydrazide]
22 | 0.68 µg/mL (≈ 1.57 µM) | – | O=C(Cn1cc(C(=O)NNc2ccc(F)cc2)ccc1=O)c1ccc(C(F)(F)F)cc1 [Example 69, N′-(4-fluorophenyl)-6-oxo-1-(2-oxo-2-(4-(trifluoromethyl)phenyl)ethyl)-1,6-dihydropyridine-3-carbohydrazide]
23 | 0.09 µg/mL (≈ 0.199 µM) | – | O=C(Cn1cc(C(=O)NNc2ccc(F)c(F)c2)ccc1=O)c1ccc(C(F)(F)F)cc1 [Example 70, N′-(3,4-difluorophenyl)-6-oxo-1-(2-oxo-2-(4-(trifluoromethyl)phenyl)ethyl)-1,6-dihydropyridine-3-carbohydrazide]
24 | 0.04 µg/mL (≈ 0.0892 µM) | – | O=C(Cn1cc(C(=O)NNc2cccc(F)c2)ccc1=O)Nc1ccc(C(F)(F)F)cc1 [Example 71, 2-(5-(2-(3-fluorophenyl)hydrazinecarbonyl)-2-oxopyridine-1(2H)-yl)-N-(4-(trifluoromethyl)phenyl)acetamide]
25 | 0.09 µg/mL (≈ 0.201 µM) | – | O=C(Cn1cc(C(=O)NNc2ccc(F)cc2)ccc1=O)Nc1ccc(C(F)(F)F)cc1 [Example 72, 2-(5-(2-(4-fluorophenyl)hydrazinecarbonyl)-2-oxopyridine-1(2H)-yl)-N-(4-(trifluoromethyl)phenyl)acetamide]
26 | 0.56 µg/mL (≈ 1.55 µM) | – | O=C(NNc1cccc(F)c1)c1ccc(=O)n(CCN2CCOCC2)c1 [Example 73, N′-(3-fluorophenyl)-1-(2-morpholinoethyl)-6-oxo-1,6-dihydropyridine-3-carbohydrazide]
27 | 0.56 µg/mL (≈ 1.55 µM) | – | O=C(NNc1ccc(F)cc1)c1ccc(=O)n(CCN2CCOCC2)c1 [Example 74, N′-(4-fluorophenyl)-1-(2-morpholinoethyl)-6-oxo-1,6-dihydropyridine-3-carbohydrazide]
28 | 0.26 µg/mL (≈ 0.782 µM) | – | CN(C)C(=O)Cn1cc(C(=O)NNc2cccc(F)c2)ccc1=O [Example 75, 2-(5-(2-(3-fluorophenyl)hydrazine-1-carbonyl)-2-oxopyridine-1(2H)-yl)-N,N-dimethylacetamide]
29 | 0.12 µg/mL (≈ 0.393 µM) | – | COCCn1cc(C(=O)NNc2cccc(F)c2)ccc1=O [Example 76, N′-(3-fluorophenyl)-1-(2-methoxyethyl)-6-oxo-1,6-dihydropyridine-3-carbohydrazide]
30 | 1.04 µg/mL (≈ 3.13 µM) | – | CN(C)C(=O)Cn1cc(C(=O)NNc2ccc(F)cc2)ccc1=O [Example 77, 2-(5-(2-(4-fluorophenyl)hydrazinecarbonyl)-2-oxopyridine-1(2H)-yl)-N,N-dimethylacetamide]
31 | 0.24 µg/mL (≈ 0.786 µM) | – | COCCn1cc(C(=O)NNc2ccc(F)cc2)ccc1=O [Example 78, N′-(4-fluorophenyl)-1-(2-methoxyethyl)-6-oxo-1,6-dihydropyridine-3-carbohydrazide]
32 | 8.93 µg/mL (≈ 25 µM) | – | O=C1NNc2cc(F)ccc2C(=O)OCC/C=C/Cn2cc1ccc2=O [Example 79, (1^5E,10E)-5^5-fluoro-1^1,1^2-dihydro-7-oxa-3,4-diaza-1(5,1)-pyridina-5(1,2)-benzenacyclododecaphan-10-ene-1^2,2,6-trione]
33 | 1.95 µg/mL (≈ 6.26 µM) | – | O=C1NNc2ccccc2OCC/C=C/Cn2cc1ccc2=O [Example 81, (1^5E,9E)-1^1,1^2-dihydro-6-oxa-3,4-diaza-1(5,1)-pyridina-5(1,2)-benzenacycloundecaphan-9-ene-1^2,2-dione]
